Laboratory results published in ChEMBL document CHEMBL5291721, “A preclinical secondary pharmacology resource illuminates target-adverse drug reaction associations of marketed drugs” (Nat Commun, 2023).

Tests used:
[1] = biological target: T1, Type-1 angiotensin II receptor (Homo sapiens, UniProt P30556)
T1 sequence (P30556 whole entry): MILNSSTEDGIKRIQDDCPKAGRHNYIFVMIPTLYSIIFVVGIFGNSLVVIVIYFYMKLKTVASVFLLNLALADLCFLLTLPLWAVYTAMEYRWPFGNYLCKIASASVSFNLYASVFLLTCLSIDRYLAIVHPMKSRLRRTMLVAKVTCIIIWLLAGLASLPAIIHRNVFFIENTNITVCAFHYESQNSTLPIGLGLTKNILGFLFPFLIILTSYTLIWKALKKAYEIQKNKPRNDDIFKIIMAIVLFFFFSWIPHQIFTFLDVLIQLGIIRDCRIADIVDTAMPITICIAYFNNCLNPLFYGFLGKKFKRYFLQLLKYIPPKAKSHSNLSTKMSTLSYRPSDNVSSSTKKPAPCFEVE

[2] = biological target: T2, Muscarinic acetylcholine receptor M1 (Homo sapiens, UniProt P11229); format: functional
T2 sequence (P11229 whole entry): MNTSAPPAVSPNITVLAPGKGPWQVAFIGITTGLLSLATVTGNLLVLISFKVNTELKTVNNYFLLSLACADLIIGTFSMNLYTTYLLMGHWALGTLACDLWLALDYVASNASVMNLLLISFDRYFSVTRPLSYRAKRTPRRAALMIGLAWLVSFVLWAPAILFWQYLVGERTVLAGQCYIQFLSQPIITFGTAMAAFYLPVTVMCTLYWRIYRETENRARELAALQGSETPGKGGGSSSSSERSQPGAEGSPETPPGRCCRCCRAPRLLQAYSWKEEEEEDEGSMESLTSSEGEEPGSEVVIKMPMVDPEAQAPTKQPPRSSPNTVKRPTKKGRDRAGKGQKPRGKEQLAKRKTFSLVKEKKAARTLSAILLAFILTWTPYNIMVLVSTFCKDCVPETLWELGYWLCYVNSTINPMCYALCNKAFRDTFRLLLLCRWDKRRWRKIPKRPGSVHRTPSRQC

B2 bradykinin receptor = biological target: T3, B2 bradykinin receptor (Homo sapiens, UniProt P30411)
T3 sequence (P30411 whole entry): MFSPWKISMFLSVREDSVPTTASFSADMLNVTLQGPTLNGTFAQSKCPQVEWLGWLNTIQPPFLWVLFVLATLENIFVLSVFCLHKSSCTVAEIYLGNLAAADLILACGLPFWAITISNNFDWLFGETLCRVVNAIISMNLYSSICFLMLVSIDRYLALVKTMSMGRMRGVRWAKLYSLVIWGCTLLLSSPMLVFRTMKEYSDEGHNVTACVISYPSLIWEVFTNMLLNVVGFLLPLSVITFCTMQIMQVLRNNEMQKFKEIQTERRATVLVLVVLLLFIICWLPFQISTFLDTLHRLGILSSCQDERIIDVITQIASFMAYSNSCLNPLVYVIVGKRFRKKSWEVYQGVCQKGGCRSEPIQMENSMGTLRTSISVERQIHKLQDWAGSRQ

[3] = biological target: T4, Alpha-2C adrenergic receptor (Homo sapiens, UniProt P18825); format: functional
T4 sequence (P18825 whole entry): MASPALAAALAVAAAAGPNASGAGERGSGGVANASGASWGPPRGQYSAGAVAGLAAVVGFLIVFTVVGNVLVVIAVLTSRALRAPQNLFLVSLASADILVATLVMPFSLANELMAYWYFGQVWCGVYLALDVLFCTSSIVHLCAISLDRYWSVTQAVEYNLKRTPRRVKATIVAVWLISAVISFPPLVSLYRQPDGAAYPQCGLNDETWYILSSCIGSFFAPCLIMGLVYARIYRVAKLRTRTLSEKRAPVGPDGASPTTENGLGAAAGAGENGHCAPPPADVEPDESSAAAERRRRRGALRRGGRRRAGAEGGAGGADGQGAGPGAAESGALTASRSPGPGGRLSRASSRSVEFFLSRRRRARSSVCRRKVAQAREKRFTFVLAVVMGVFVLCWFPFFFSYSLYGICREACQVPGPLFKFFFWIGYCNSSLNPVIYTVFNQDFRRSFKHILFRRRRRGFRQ

[4] = biological target: T5, Muscarinic acetylcholine receptor M2 (Homo sapiens, UniProt P08172); format: functional, cell-based
T5 sequence (P08172 whole entry): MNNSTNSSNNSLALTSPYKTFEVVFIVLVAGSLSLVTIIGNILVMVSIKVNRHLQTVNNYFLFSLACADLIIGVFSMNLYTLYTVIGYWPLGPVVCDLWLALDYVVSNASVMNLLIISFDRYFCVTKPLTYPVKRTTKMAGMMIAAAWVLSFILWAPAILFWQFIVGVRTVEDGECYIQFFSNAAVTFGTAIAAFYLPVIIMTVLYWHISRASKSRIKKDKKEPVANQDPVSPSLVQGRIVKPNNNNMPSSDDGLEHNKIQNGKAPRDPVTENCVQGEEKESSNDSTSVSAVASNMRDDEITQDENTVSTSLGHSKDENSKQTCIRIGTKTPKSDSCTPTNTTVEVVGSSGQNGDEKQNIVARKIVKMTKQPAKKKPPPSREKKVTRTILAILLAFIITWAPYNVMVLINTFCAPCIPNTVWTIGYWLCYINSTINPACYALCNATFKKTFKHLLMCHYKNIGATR

[5] = biological target: T6, 5-hydroxytryptamine receptor 1A (Homo sapiens, UniProt P08908); format: functional, cell-based
T6 sequence (P08908 whole entry): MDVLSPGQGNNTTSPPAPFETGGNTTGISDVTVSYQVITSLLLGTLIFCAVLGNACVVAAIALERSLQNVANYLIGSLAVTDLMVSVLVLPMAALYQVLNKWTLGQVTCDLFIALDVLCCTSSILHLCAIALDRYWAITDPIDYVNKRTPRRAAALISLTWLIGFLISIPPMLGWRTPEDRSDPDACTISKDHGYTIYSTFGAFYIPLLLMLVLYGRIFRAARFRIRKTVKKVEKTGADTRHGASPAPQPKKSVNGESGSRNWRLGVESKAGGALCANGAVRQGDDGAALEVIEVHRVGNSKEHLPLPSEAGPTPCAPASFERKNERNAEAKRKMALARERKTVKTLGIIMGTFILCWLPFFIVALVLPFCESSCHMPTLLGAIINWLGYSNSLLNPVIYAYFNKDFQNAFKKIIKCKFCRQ
Also: assay procedure not described here.

| Molecule | AC50 [1] [µM] | AC50 [2] [µM] | AC50 (B2 bradykinin receptor) [µM] | AC50 [3] [µM] | AC50 [4] [µM] | AC50 [5] [µM] |
| --- | --- | --- | --- | --- | --- | --- |
| C=C[C@@]1(C)CC(=O)[C@]2(O)[C@@]3(C)[C@@H](O)CCC(C)(C)[C@@H]3[C@H](OC(=O)CCN(C)C)[C@H](OC(C)=O)[C@@]2(C)O1 | > 30 | > 30 | > 30 | > 30 | > 30 | – |
| NCCCC(O)(P(=O)(O)O)P(=O)(O)O [ALENDRONIC ACID] | > 30 | – | > 30 | > 10 | – | > 10 |
| Nc1ccc(C(=O)O)c(O)c1 [AMINOSALICYLIC ACID] | > 30 | – | > 30 | > 30 | > 30 | – |
| COc1cc(OC)c(C(=O)CCCN2CCCC2)c(OC)c1 [BUFLOMEDIL] | > 30 | – | > 30 | 13 | > 30 | 29 |
| CS(=O)(=O)OCCCCOS(C)(=O)=O [BUSULFAN] | > 30 | – | > 30 | > 30 | > 30 | > 30 |
| CCCCCCNC(=O)n1cc(F)c(=O)[nH]c1=O [CARMOFUR] | > 30 | – | > 30 | > 30 | > 30 | > 30 |
| C=CC1=C(C(=O)O)N2C(=O)[C@@H](NC(=O)/C(=N\OCC(=O)O)c3csc(N)n3)[C@H]2SC1 [CEFIXIME] | > 30 | > 30 | > 30 | > 30 | > 30 | – |
| CC(C)(C)NCC(O)c1cc(Cl)c(N)c(Cl)c1 (stereo unspecified) [CLENBUTEROL] | > 30 | – | > 30 | > 30 | > 30 | > 30 |
| CCC(C)(Oc1ccc(C2(c3ccc(OC(C)(CC)C(=O)O)cc3)CCCCC2)cc1)C(=O)O (stereo unspecified) [CLINOFIBRATE] | > 30 | > 30 | > 30 | > 30 | > 30 | – |
| C[C@@H]1C[C@H]2[C@@H]3C[C@H](F)C4=CC(=O)C=C[C@]4(C)[C@@]3(F)[C@@H](O)C[C@]2(C)[C@H]1C(=O)CO [DIFLUCORTOLONE] | – | > 30 | – | > 30 | – | – |
| CCCCC[C@H](O)/C=C/[C@H]1[C@H](O)CC(=O)[C@@H]1C/C=C\CCCC(=O)O [DINOPROSTONE] | > 30 | > 30 | > 30 | > 30 | > 30 | – |
| CC(C)c1cc2c(cc1S(=O)(=O)O)[C@@]1(C)CCC[C@@](C)(C(=O)O)[C@@H]1CC2 [ECABET] | > 30 | > 30 | > 30 | > 30 | > 30 | – |
| COLISTIN | – | > 30 | – | > 30 | – | > 30 |

More lines, now with the values ahead:

| AC50 [1] [µM] | AC50 [2] [µM] | AC50 (B2 bradykinin receptor) [µM] | AC50 [3] [µM] | AC50 [4] [µM] | AC50 [5] [µM] | Molecule |
| --- | --- | --- | --- | --- | --- | --- |
| > 30 | > 30 | > 30 | > 30 | > 30 | – | CCCN(CC)C(CC)C(=O)Nc1c(C)cccc1C (stereo unspecified) [ETIDOCAINE] |
| 23 | > 30 | > 30 | > 30 | > 30 | – | Clc1ccc(C(Cn2ccnc2)OCc2ccc(Sc3ccccc3)cc2)c(Cl)c1 (stereo unspecified) [FENTICONAZOLE] |
| > 30 | – | > 30 | > 30 | > 30 | > 30 | Nc1nc2c(c(=O)[nH]1)N(C=O)C(CNc1ccc(C(=O)N[C@@H](CCC(=O)O)C(=O)O)cc1)CN2 (stereo partly specified) [LEUCOVORIN] |
| > 30 | > 30 | > 30 | > 30 | > 30 | – | CC(C)OC(=O)C(C(=O)OC(C)C)=C1SC=CS1 [MALOTILATE] |
| > 30 | 0.011 | > 30 | > 30 | > 30 | – | CN(c1nccc(=O)[nH]1)C1CCN(c2nc3ccccc3n2Cc2ccc(F)cc2)CC1 [MIZOLASTINE] |
| > 30 | 22 | > 30 | > 30 | > 30 | – | CCOC(=O)Nc1ccc2c(c1)N(C(=O)CCN1CCOCC1)c1ccccc1S2 [MORICIZINE] |
| > 30 | – | > 30 | > 30 | > 30 | > 30 | CCn1cc(C(=O)O)c(=O)c2cc(F)c(N3CCN(C)CC3)cc21 [PEFLOXACIN] |
| – | – | – | > 30 | – | > 30 | C[n+]1ccccc1/C=N/O [PRALIDOXIME] |
| > 30 | – | > 30 | > 30 | > 30 | > 30 | CCCNC(C)C(=O)Nc1ccccc1C (stereo unspecified) [PRILOCAINE] |
| > 30 | > 30 | > 30 | > 30 | > 30 | – | CCN(CC)CC(=O)Oc1ccc(NC(C)=O)cc1 [PROPACETAMOL] |
| > 30 | > 30 | > 10 | > 30 | > 30 | – | Cc1ccc2c(-c3ccccc3)nc(=O)n(C(C)C)c2c1 [PROQUAZONE] |
| > 30 | > 30 | > 30 | > 30 | – | – | Cc1cc2nc3c(=O)[nH]c(=O)nc-3n(C[C@H](O)[C@H](O)[C@H](O)COP(=O)(O)O)c2cc1C [RIBOFLAVIN 5'-PHOSPHATE] |
| > 30 | > 30 | > 30 | > 30 | > 30 | – | CN1CCN(c2c(F)cc3c(=O)c(C(=O)O)cn4c3c2SCC4)CC1 [RUFLOXACIN] |
| > 30 | – | > 30 | > 30 | > 30 | 4.2 | CC(C)(C)NC[C@H](O)COc1nsnc1N1CCOCC1 [TIMOLOL] |
| – | > 30 | – | > 30 | > 30 | – | COc1cc2nccc(Oc3ccc(NC(=O)Nc4cc(C)on4)c(Cl)c3)c2cc1OC [TIVOZANIB] |
| > 30 | – | > 30 | 27 | > 30 | – | CN1[C@@H]2CC[C@H]1C[C@@H](OC(=O)c1c[nH]c3ccccc13)C2 [TROPISETRON] |
| > 30 | 11 | > 10 | 0.856 | 21 | – | COc1cc2c(Nc3ccc(Br)cc3F)ncnc2cc1OCC1CCN(C)CC1 [VANDETANIB] |
